# Values quoted from earlier work, collected in patent US20210145768A1, “MODULATING IMMUNE RESPONSE VIA TARGETING OF OLFACTORY RECEPTOR ACTIVITY” (La Jolla Institute for Allergy and Immunology, priority 2018, published 2021).
# System: olfactory receptors
# Conditions: odorant (agonist) : olfactory receptor pair; cited from earlier work
row,SMILES,Olfactory receptor agonized by the odorant (agonist)
1,O=C(O)CCCCCCCC(=O)O [azelaic acid],Olfr544 (human unknown)
2,CCCCCOC(=O)CCC [amyl butyrate],OR2AG1
3,CC1=CCC(CCC(C)CO)C1(C)C (stereo not drawn) [Brahmanol],OR2AT4
